Series [1] is described as follows: (§1) Cytotoxicity against Chlorocebus aethiops (African green monkey) Vero cells assessed as cell viability after 3 days by SRB assay. The following applies: chlorocebus sabaeus, Vero cells. The format is cell-based.
In a further series the test system is Vero. Described as §1. The format is cell-based. The following applies: chlorocebus sabaeus, vero, 72 h.
The test system of another series is Bacillus subtilis. As to the kind of experiment: Antibacterial activity against Bacillus subtilis at 50 ug/well after 24 hr by agar well diffusion method. The series is classed as functional, organism-based. (A growth-free zone around the sample is the usual read-out of agar diffusion tests.)
In the next series the test system is Staphylococcus aureus. As to the kind of experiment: Antibacterial activity against Staphylococcus aureus at 50 ug/well after 24 hr by agar well diffusion method. The format is functional, organism-based.

This passage reports CC50, pCC50 and Activity results from ChEMBL document CHEMBL3044611, “Synthesis of novel Hantzsch dihydropyridines and Biginelli dihydropyrimidines of biological interest: a 3D-QSAR study on their cytotoxicity” (Med Chem Res, 2010).

In brackets after ≈: the same amount, converted by molar mass. Activity calls are given as the source filed them. No cut-off for these calls is given here.

`COc1ccc(NC(=O)C2=C(C)NC(=S)NC2c2ccc(N(C)C)cc2)cc1` (stereo not given): the CC50 (commonly the concentration giving 50% cytotoxicity) at 72 h in series [1] amounted to 500 µg/mL (≈ 1260 µM). Moreover, in the series on Vero, the pCC50 (as a rule, the negative decadic logarithm of the CC50, by convention in mol/L) was -0.101. Besides, the outcome in the series on Bacillus subtilis and in the series with Staphylococcus aureus was inactive.
Regarding `COc1ccc(NC(=O)C2=C(C)NC(=O)NC2c2ccc(N(C)C)cc2)cc1` (stereo not given), the CC50 at 72 h in series [1] was found to be 236 µg/mL (≈ 620 µM). In addition, the pCC50 in the series on Vero came to 0.207. The outcome with Bacillus subtilis and in the series on Staphylococcus aureus was inactive.
Regarding `COc1ccc(NC(=O)C2=C(C)NC(=S)NC2c2cccc([N+](=O)[O-])c2)cc1` (stereo not given), the CC50 at 72 h in series [1] was 80 µg/mL (≈ 201 µM). Also, the pCC50 in the series on Vero is 0.697. Besides, the outcome with Bacillus subtilis and in the series with Staphylococcus aureus was inactive.
Turning to `CC1=C(C(=O)Nc2ccc(Cl)cc2)C(c2cccc(Cl)c2)C(C(=O)Nc2ccc(Cl)cc2)=C(C)N1`, the CC50 at 72 h in series [1] was 12 µg/mL (≈ 22.8 µM). Moreover, the pCC50 in the series with Vero was 1.642. Moreover, the outcome in the series with Bacillus subtilis and with Staphylococcus aureus was inactive.
In the case of `COc1ccc(NC(=O)C2=C(C)NC(=O)NC2c2cccc([N+](=O)[O-])c2)cc1` (stereo not given), in series [1], the CC50 at 72 h amounted to 64 µg/mL (≈ 167 µM). Further, the pCC50 in the series with Vero stood at 0.776. Also, the outcome in the series on Bacillus subtilis and in the series with Staphylococcus aureus was inactive.
In the case of `CC1=C(C(=O)Nc2ccc(Cl)cc2)C(c2ccco2)C(C(=O)Nc2ccc(Cl)cc2)=C(C)N1`, in series [1], the CC50 at 72 h is 24 µg/mL (≈ 49.8 µM). The pCC50 with Vero was 1.302. For the same compound, the result in the series on Bacillus subtilis and in the series on Staphylococcus aureus was inactive.
As to `COc1ccc(NC(=O)C2=C(C)NC(=O)NC2c2ccncc2)cc1` (stereo not given), the CC50 at 72 h in series [1] is 10 µg/mL (≈ 29.6 µM). In addition, the pCC50 in the series on Vero was 1.529. Moreover, the outcome in the series with Bacillus subtilis and with Staphylococcus aureus was inactive.
Consider `COc1ccc(NC(=O)C2=C(C)NC(=O)NC2c2ccco2)cc1` (stereo not given), for which the CC50 at 72 h in series [1] turned out to be 210 µg/mL (≈ 642 µM). Moreover, the pCC50 in the series with Vero turned out to be 0.192. Besides, the outcome in the series with Bacillus subtilis and in the series on Staphylococcus aureus was inactive.
Turning to `COc1ccc(C2C(C(=O)Nc3ccc(Cl)cc3)=C(C)NC(C)=C2C(=O)Nc2ccc(Cl)cc2)cc1`, the CC50 at 72 h in series [1] was determined as 20 µg/mL (≈ 38.3 µM). Also, the pCC50 in the series on Vero amounted to 1.42. For the same compound, the result in the series on Bacillus subtilis and in the series with Staphylococcus aureus was inactive.
Consider `CC1=C(C(=O)Nc2ccc(Cl)cc2)CC(C(=O)Nc2ccc(Cl)cc2)=C(C)N1`, for which, in series [1], the cytotoxic concentration (CC50) at 72 h worked out at 40 µg/mL (≈ 96.1 µM). Moreover, in the series with Vero, the negative-log CC50 (pCC50) was found to be 1.017. The outcome in the series on Bacillus subtilis and in the series on Staphylococcus aureus was inactive.
As to `COc1ccc(NC(=O)C2=C(C)NC(=O)NC2)cc1`, the CC50 at 72 h in series [1] amounted to 200 µg/mL (≈ 765 µM). For the same compound, in the series with Vero, the negative logarithm of the CC50 (pCC50) came out at 0.116. Also, the result in the series with Bacillus subtilis and in the series with Staphylococcus aureus was inactive.
Take `COc1ccc(NC(=O)C2=C(C)NC(=O)NC2/C=C/c2ccccc2)cc1` (stereo not given): the CC50 at 72 h in series [1] was found to be 15 µg/mL (≈ 41.3 µM). Besides, the pCC50 in the series with Vero is given as 1.383. Further, the result with Bacillus subtilis and in the series with Staphylococcus aureus was inactive.
On to `COc1ccc(NC(=O)C2=C(C)N=C(S)NC2c2ccc(O)c(OC)c2)cc1` (stereo not given), for which the CC50 at 72 h in series [1] was determined as 8 µg/mL (≈ 20 µM). For the same compound, the pCC50 in the series with Vero turned out to be 1.698. Further, the outcome with Bacillus subtilis and in the series on Staphylococcus aureus was inactive.
As to `COc1ccc(NC(=O)C2=C(C)NC(=S)NC2c2cccc(Cl)c2)cc1` (stereo not given), in series [1], the CC50 at 72 h was found to be 270 µg/mL (≈ 696 µM). In addition, the pCC50 in the series on Vero was 0.157. The outcome in the series on Bacillus subtilis and in the series on Staphylococcus aureus was inactive.
In the case of `CC1=C(C(=O)Nc2ccc(Cl)cc2)C(c2ccccc2O)C(C(=O)Nc2ccc(Cl)cc2)=C(C)N1`, the CC50 at 72 h in series [1] was 62 µg/mL (≈ 122 µM). Further, in the series on Vero, the pCC50 is 0.913. Moreover, the result in the series on Bacillus subtilis and in the series on Staphylococcus aureus was inactive.
As to `COc1ccc(NC(=O)C2=C(C)NC(=S)NC2c2ccccc2O)cc1` (stereo not given), in series [1], the CC50 at 72 h came to 246 µg/mL (≈ 666 µM). Also, the pCC50 in the series with Vero came to 0.176. For the same compound, the result in the series with Bacillus subtilis and in the series with Staphylococcus aureus was inactive.
With `COc1ccc(NC(=O)C2=C(C)NC(=S)NC2c2ccco2)cc1` (stereo not given), the half-maximal cytotoxic concentration (CC50) at 72 h in series [1] was determined as 230 µg/mL (≈ 670 µM). For the same compound, the pCC50 in the series on Vero was 0.173. Moreover, the outcome in the series on Bacillus subtilis and in the series with Staphylococcus aureus was inactive.
As to `COc1ccc(NC(=O)C2=C(C)NC(=O)NC2c2cccc(Cl)c2)cc1` (stereo not given), in series [1], the CC50 at 72 h was found to be 254 µg/mL (≈ 683 µM). In the series with Vero, the pCC50 turned out to be 0.164. The outcome with Bacillus subtilis and with Staphylococcus aureus was inactive.
As to `COc1cc(C2C(C(=O)Nc3ccc(Cl)cc3)=C(C)NC(C)=C2C(=O)Nc2ccc(Cl)cc2)ccc1O`, the CC50 at 72 h in series [1] is 250 µg/mL (≈ 464 µM). Moreover, in the series on Vero, the pCC50 was 0.333. For the same compound, the result with Bacillus subtilis and in the series on Staphylococcus aureus was inactive.
For the compound `CC1=C(C(=O)Nc2ccc(Cl)cc2)C(c2ccc(N(C)C)cc2)C(C(=O)Nc2ccc(Cl)cc2)=C(C)N1`, the CC50 at 72 h in series [1] stood at 155 µg/mL (≈ 289 µM). For the same compound, the pCC50 in the series on Vero stood at 0.538. Also, the outcome in the series on Bacillus subtilis and in the series with Staphylococcus aureus was inactive.
With `COc1ccc(NC(=O)C2=C(C)NC(=O)NC2c2ccccc2)cc1` (stereo not given), the CC50 at 72 h in series [1] is 225 µg/mL (≈ 667 µM). For the same compound, the pCC50 in the series with Vero is 0.176. Also, the outcome with Bacillus subtilis and in the series with Staphylococcus aureus was inactive.
For the compound `COc1ccc(NC(=O)C2=C(C)NC(=O)NC2c2ccc(OC)cc2)cc1` (stereo not given), in series [1], the half-maximal cytotoxic concentration (CC50) at 72 h turned out to be 158 µg/mL (≈ 430 µM). In addition, the pCC50 with Vero was 0.367. Moreover, the result with Bacillus subtilis and in the series on Staphylococcus aureus was inactive.
On to `COc1ccc(NC(=O)C2=C(C)NC(=O)NC2c2ccc(O)c(OC)c2)cc1` (stereo not given), for which the CC50 at 72 h in series [1] is 8 µg/mL (≈ 20.9 µM). The pCC50 with Vero amounted to 1.68. The result with Bacillus subtilis and in the series on Staphylococcus aureus was inactive.
As for `COc1ccc(NC(=O)C2=C(C)NC(=S)NC2c2ccccc2)cc1` (stereo not given), the 50% cytotoxic concentration (CC50) at 72 h in series [1] came out at 15 µg/mL (≈ 42.4 µM). Further, the pCC50 with Vero turned out to be 1.371. For the same compound, the result in the series with Bacillus subtilis and in the series on Staphylococcus aureus was inactive.
For `CC1=C(C(=O)Nc2ccc(Cl)cc2)C(c2ccccc2)C(C(=O)Nc2ccc(Cl)cc2)=C(C)N1`, the CC50 at 72 h in series [1] was found to be 15 µg/mL (≈ 30.5 µM). Also, in the series with Vero, the negative-log CC50 (pCC50) was found to be 1.516. Besides, the outcome in the series with Bacillus subtilis and with Staphylococcus aureus was inactive.
As to `CC1=C(C(=O)Nc2ccc(Cl)cc2)C(c2cccc([N+](=O)[O-])c2)C(C(=O)Nc2ccc(Cl)cc2)=C(C)N1`, the CC50 at 72 h in series [1] amounted to 26 µg/mL (≈ 48.4 µM). For the same compound, the pCC50 with Vero is recorded as 1.315. Besides, the outcome in the series on Bacillus subtilis and with Staphylococcus aureus was inactive.
For `CC1=C(C(=O)Nc2ccc(Cl)cc2)C(c2ccncc2)C(C(=O)Nc2ccc(Cl)cc2)=C(C)N1`, in series [1], the CC50 at 72 h came to 78 µg/mL (≈ 158 µM). Further, the pCC50 in the series with Vero was determined as 0.8. The result with Bacillus subtilis and with Staphylococcus aureus was inactive.
For `CC1=C(C(=O)Nc2ccc(Cl)cc2)C(/C=C/c2ccccc2)C(C(=O)Nc2ccc(Cl)cc2)=C(C)N1`, in series [1], the CC50 at 72 h amounted to 21 µg/mL (≈ 40.5 µM). The pCC50 in the series on Vero is reported as 1.392. Besides, the outcome in the series with Bacillus subtilis and in the series with Staphylococcus aureus was inactive.
In the case of `COc1ccc(NC(=O)C2=C(C)NC(=O)NC2c2ccccc2O)cc1` (stereo not given), the CC50 at 72 h in series [1] is 160 µg/mL (≈ 453 µM). For the same compound, in the series on Vero, the negative logarithm of the CC50 (pCC50) came out at 0.343. Further, the result in the series on Bacillus subtilis and in the series with Staphylococcus aureus was inactive.
Regarding `COc1ccc(NC(=O)C2=C(C)NC(=S)NC2c2ccc(OC)cc2)cc1` (stereo not given), the CC50 at 72 h in series [1] worked out at 150 µg/mL (≈ 391 µM). Further, in the series on Vero, the pCC50 was 0.408. Further, the outcome in the series with Bacillus subtilis and in the series on Staphylococcus aureus was inactive.
